Columns and labels:
[1] = Stability after purging with different air/nitrogen gas mixtures; assay type: physicochemical; settings: 400 mg/ml, pH 8.5; for Final Amount of Aldehyde (II) / Final Amount of Related Substances: 2 months +40° C./75% RH
Procedure: A concentrated aqueous solution of α-(2,4-disulfophenyl)-N-tert-butylnitrone disodium salt (400 mg/ml) and disodium hydrogen phosphate (5.3 mM) at pH 8.5 was purged with different levels of air/nitrogen gas mixtures. The solutions were stored in sealed 10 ml glass vials with a fill volume of 7 ml. The samples were stored for two months at +40° C. and 75% relative humidity.

[2] = Stability versus vial headspace volume (fill volume); assay type: physicochemical; settings: 400 mg/ml; for Final Amount of Aldehyde (II): pH 8.5, headspace not purged, 2 months +40° C./75% RH
Procedure: A concentrated aqueous solution of α-(2,4-disulfophenyl)-N-tert-butylnitrone disodium salt (400 mg/ml) and disodium hydrogen phosphate (10.5 mM) at pH 8.5 was purged with nitrogen for 30 minutes. Either 8 ml or 13 ml portions of this solution were then placed in standard 10 ml glass vials (the maximum possible fill volume of a standard 10 ml glass vial is 13 ml). The headspace was not purged with nitrogen. The vials were sealed and stored at +40° C. and 75% relative humidity for two months.

C. albicans = assay: Antimicrobial efficacy (European Pharmacopoeia 2000, Chapter 5.1.3); assay type: cell-based
Procedure: (§1) The antimicrobial efficacy was tested for three different solutions:
(§2) i) α-(2,4-disulfophenyl)-N-tert-butylnitrone disodium salt, 10 mg/ml;
(§3) ii) α-(2,4-disulfophenyl)-N-tert-butylnitrone disodium salt, 400 mg/ml; and
(§4) iii) a carbonate buffer control.
(§5) The tests were performed according to European Pharmacopoeia 2000, Chapter 5.1.3, pages 259 to 260. Seven 10 ml vials were inoculated, one per test organism. During the tests, the vials were stored at controlled room temperature and protected from light. At different time intervals, samples were withdrawn and after appropriate dilutions the numbers of viable microorganisms (colony forming units per ml, CFU/ml) were determined using standard plate count procedures.

Ps. aeruginosa = assay: as above; assay type: cell-based
Procedure: as §1, §2, §3, §4, §5

Bur. cepacia = assay: as above; assay type: cell-based; settings: 10 mg/ml
Procedure: as §1, §2, §3, §4, §5

In the case of `CC(C)(C)[N+]([O-])=Cc1ccc(S(=O)(=O)[O-])cc1S(=O)(=O)[O-].[Na+].[Na+]` [α-(2,4-disulfophenyl)-N-tert-butylnitrone disodium salt], the “Initial aldehyde (II)” value ([1]; 5.3 mM phosphate, initial) is reported as 0.25 area %, the Initial related substances ([1]; 5.3 mM phosphate, initial) is reported as 0.56 area % and the “Final Amount of Aldehyde (II)” value ([1]; 0% air in purge gas) is reported as 0.57 area %. For the same molecule, the “Final Amount of Related Substances” value ([1]; 0% air in purge gas) was 1.3 area %, the “Final Amount of Aldehyde (II)” value ([1]; 6.25% air in purge gas) was 0.68 ± 0.08 (n = 2) area % and the “Final Amount of Related Substances” value ([1]; 6.25% air in purge gas) was 1.5 ± 0.1 (n = 2) area %. For the same molecule, the “Final Amount of Aldehyde (II)” value ([1]; 12.5% air in purge gas) was 0.63 ± 0.01 (n = 2) area %, the “Final Amount of Related Substances” value ([1]; 12.5% air in purge gas) was 1.4 area % and the “Final Amount of Aldehyde (II)” value ([1]; 25% air in purge gas) was 0.77 area %. For the same molecule, the “Final Amount of Related Substances” value ([1]; 25% air in purge gas) was 1.6 area %, the “Final Amount of Aldehyde (II)” value ([1]; 50% air in purge gas) was 0.93 area % and the “Final Amount of Related Substances” value ([1]; 50% air in purge gas) was 1.9 area %. The “Final Amount of Aldehyde (II)” value ([1]; 100% air in purge gas) was 1.27 area %, the “Final Amount of Related Substances” value ([1]; 100% air in purge gas) was 2.4 area % and the Initial aldehyde level ([2]; 10.5 mM phosphate, pH 8.5, nitrogen purged, initial) was 0.1%. For the same molecule, the “Final Amount of Aldehyde (II)” value ([2]; fill volume 8 ml in 10 ml vial) was 1.1 area %, the “Final Amount of Aldehyde (II)” value ([2]; fill volume 13 ml in 10 ml vial) was 0.6 area % and the “Number of CFUs per ml - Time after Inoculation” value (from here on “Number of CFUs per ml - Time”) (C. albicans; 10 mg/ml, 6 h) was 7.0 × 10^5 CFUs per ml. For the same molecule, the “Number of CFUs per ml - Time” value (C. albicans; 10 mg/ml, 24 h) was 6.5 × 10^5 CFUs per ml, the “Number of CFUs per ml - Time” value (C. albicans; 10 mg/ml, 48 h) was 6.5 × 10^5 CFUs per ml and the “Number of CFUs per ml - Time” value (C. albicans; 10 mg/ml, 7 days) was less than 10 CFUs per ml. The “Number of CFUs per ml - Time” value (C. albicans; 10 mg/ml, 14 days) was less than 1 CFUs per ml, the “Number of CFUs per ml - Time” value (C. albicans; 10 mg/ml, 21 days) was less than 1 CFUs per ml and the “Number of CFUs per ml - Time” value (C. albicans; 10 mg/ml, 28 days) was less than 1 CFUs per ml. The “Number of CFUs per ml - Time” value (C. albicans; 10 mg/ml, <1 min) was 6.5 × 10^5 CFUs per ml, the “Number of CFUs per ml - Time” value (C. albicans; 400 mg/ml, 6 h) was 3.1 × 10^4 CFUs per ml and the “Number of CFUs per ml - Time” value (C. albicans; 400 mg/ml, 24 h) was 6.1 × 10^3 CFUs per ml. The “Number of CFUs per ml - Time” value (C. albicans; 400 mg/ml, 48 h) was less than 1 CFUs per ml, the “Number of CFUs per ml - Time” value (C. albicans; 400 mg/ml, 7 days) was less than 1 CFUs per ml and the “Number of CFUs per ml - Time” value (C. albicans; 400 mg/ml, 14 days) was less than 1 CFUs per ml. The “Number of CFUs per ml - Time” value (C. albicans; 400 mg/ml, 21 days) was less than 1 CFUs per ml, the “Number of CFUs per ml - Time” value (C. albicans; 400 mg/ml, 28 days) was less than 1 CFUs per ml and the “Number of CFUs per ml - Time” value (C. albicans; 400 mg/ml, <1 min) was 1.6 × 10^5 CFUs per ml. The “Number of CFUs per ml - Time” value (Ps. aeruginosa; 10 mg/ml, 6 h) was 4.0 × 10^4 CFUs per ml, the “Number of CFUs per ml - Time” value (Ps. aeruginosa; 10 mg/ml, 24 h) was 4.0 × 10^2 CFUs per ml and the “Number of CFUs per ml - Time” value (Ps. aeruginosa; 10 mg/ml, 48 h) was 3.5 × 10^2 CFUs per ml. The “Number of CFUs per ml - Time” value (Ps. aeruginosa; 10 mg/ml, 7 days) was “≦10 CFUs per ml”, the “Number of CFUs per ml - Time” value (Ps. aeruginosa; 10 mg/ml, 14 days) was less than 1 CFUs per ml and the “Number of CFUs per ml - Time” value (Ps. aeruginosa; 10 mg/ml, 21 days) was less than 1 CFUs per ml. For the same molecule, the “Number of CFUs per ml - Time” value (Ps. aeruginosa; 10 mg/ml, 28 days) was less than 1 CFUs per ml, the “Number of CFUs per ml - Time” value (Ps. aeruginosa; 10 mg/ml, <1 min) was 1.5 × 10^6 CFUs per ml and the “Number of CFUs per ml - Time” value (Ps. aeruginosa; 400 mg/ml, 6 h) was 1.4 × 10^1 CFUs per ml. For the same molecule, the “Number of CFUs per ml - Time” value (Ps. aeruginosa; 400 mg/ml, 24 h) was less than 1 CFUs per ml, the “Number of CFUs per ml - Time” value (Ps. aeruginosa; 400 mg/ml, 48 h) was less than 1 CFUs per ml and the “Number of CFUs per ml - Time” value (Ps. aeruginosa; 400 mg/ml, 7 days) was less than 1 CFUs per ml. For the same molecule, the “Number of CFUs per ml - Time” value (Ps. aeruginosa; 400 mg/ml, 14 days) was less than 1 CFUs per ml, the “Number of CFUs per ml - Time” value (Ps. aeruginosa; 400 mg/ml, 21 days) was less than 1 CFUs per ml and the “Number of CFUs per ml - Time” value (Ps. aeruginosa; 400 mg/ml, 28 days) was less than 1 CFUs per ml. For the same molecule, the “Number of CFUs per ml - Time” value (Ps. aeruginosa; 400 mg/ml, <1 min) was 1.1 × 10^4 CFUs per ml, the “Reduction in colony forming units per ml (CFU/ml)” value (Ps. aeruginosa; 400 mg/ml, within 6 hours) was ≥ 10^3 fold and the “Number of CFUs per ml - Time” value (Bur. cepacia; 6 h) was 1.5 × 10^3 CFUs per ml. The “Number of CFUs per ml - Time” value (Bur. cepacia; 24 h) was less than 1 CFUs per ml.

— US20030181527A1, “Novel formulations of alpha-2,4-disulfophenyl-n-tert-butylnitrone” (priority 2000, published 2003)
